As usually defined, the pEC50 is the EC50 on a negative log10 scale, so that one unit is a factor of ten.

Consider 1 compound from patent publication US7709514B2, “Therapeutic molecules and methods-1” (Cortical Pty Ltd, priority 2002, dated 2010).

pEC50: −log10 of the molar value. Where two headings read alike, the source gives them in different places.

The test system of experiment [1] is murine endotoxic shock model. Briefly: murine endotoxic shock model (LPS), cytokines by ELISA. The format is in vivo, mice. How it is done:
The activity of compound 5 was studied in the murine endotoxic shock model. This model has been previously shown to be dependent on MIF (21). Administration of a substance which inhibits the cytokine or biological activity of MIF would be expected to result in a reduction in serum levels of cytokines such as IL-1 or IL-6. Endotoxaemia was induced by intra-peritoneal injection of lipopolysaccharide (LPS) (15 mg/kg) in 400 μl saline. Mice were treated with a saline solution (control) only, a saline solution and LPS, or LPS and compound 5 at a dose of 15 mg/kg body weight, administered by intra-peritoneal injection at 24 hours, 12 hours and 1 hour before intra-peritoneal LPS injection. After 1.5 hours mice were humanely killed by CO2 inhalation then neck dislocation. Serum was obtained from blood obtained by cardiac puncture prior to death and measured for cytokines including interleukin 1 (IL-1) and interleukin 6 (IL-6) by ELISA. The production of IL-1 and IL-6 has been previously shown to be dependent on MIF (22). Macrophages were obtained by lavage of the peritoneal cavity using normal saline and placed into 24 well tissue culture plates for 18 hours in RPMI/10% FCS. The cultured peritoneal macrophage supernatants were then analysed for cytokines including IL-6. The peritoneal lavage supernatants were also analysed for cytokines including IL-6.
The effect of compound 5 was tested under a variety of conditions in animals exposed to endotoxic shock induced as above by the injection of 15 mg/kg LPS by intraperitoneal injection. In each case compounds were administered by intraperitoneal injection at a dose of 15 mg/kg. Compound 5 administration was associated with reductions in serum IL-1, IL-6, and TNF concentration whether administered by intraperitoneal injection (IP) or by oral gavage, and under a variety of administration regimens.

Experiment [2] deals with antigen-specific T cell activation. Nature of the experiment: antigen-specific (mBSA) activation of splenic T lymphocytes, 3H-thymidine incorporation. The format is cell-based, mice. Conditions: for pEC50: Mus musculus, T-cell, read-out: EC50, inhibition of T cell activation. How it is done: C57BL6/J male mice, aged 7-10 weeks old, were immunised with 200 μg of methylated bovine serum albumin (mBSA) dissolved in 20 μL of saline, emulsified in 200 μL of Freund's complete adjuvant (FCA) by subcutaneous injection. Seven (7) days later mice received a booster immunisation with 100 μg mBSA in 10 μL saline plus 100 μL FCA by subcutaneous injection. After a further seven (7) days mice were killed and spleens collected aseptically into Hanks buffered saline solution (HBSS). A single cell suspension was prepared in Petri dishes by flushing DMEM using a 26G needle and 2 mL syringe. The resulting cell suspension was centrifuged for 5-7 minutes and supernatant discarded. Erythrocytes were lysed using a solution containing 0.579% NH4Cl, 0.000037% EDTA, and 0.1% NaHCO3 in a 37° C. water bath. Tubes were then filled with DMEM and centrifuged for 5-7 minutes. The cell-containing pellet was then resuspended in DMEM containing 5% fetal calf serum TICS) and 0.05% 2-mercapto-ethanol at a concentration of 1×10^6 cells/mL and plated at 1×10^5 cells/well in 96-well plastic tissue culture plates. Test substances (compound or vehicle) were added and incubated for 1 hour in a 37° C., 5% CO2 incubator. The specific stimulating antigen, mBSA, was then added at 10-50 μg/ml and plates incubated for 30 hours in a 37° C., 5% CO2 incubator. Tritiated ^3H-thymidine was then added at a concentration of 0.5 μCi/well for a further 18 hours. Cells were harvested on a Packard cell harvester, and the harvested material added to 750 μL/tube scintillation fluid. Scintillation counts were read on a Wallac beta-emission counter.
The concentration at which T cell activation was suppressed by 50% compared to vehicle-only-treated cells (EC50) was calculated using Prism® software. […] Further compounds were also tested for their ability to inhibit antigen-specific T cell activation as a marker of the inhibition of the cytokine or biological activity of MIF using this assay. Table 5 lists the EC50 for each compound in this assay, performed with concentrations of mBSA of either 50 or 10 μg/ml.

The subject of experiment [3] is murine antigen induced arthritis. Briefly: murine antigen-induced arthritis, histological score. The format is in vivo, mice. Conditions: 15 mg/kg IP once per 24 hours, day 28. How it is done:
Antigen-induced arthritis was induced in mice. C57BL6/J male mice, aged 7-10 weeks old, were immunized on day 0 with 200 μg methylated BSA (mBSA) emulsified in 200 μl of Freund's complete adjuvant (FCA) injected subcutaneously into the flank skin. Mice were treated with compound 5, administered by intraperitoneal injection, once per 24 hours at a dose of 15 mg/kg body weight. After seven days, mice received 100 μg mBSA and 100 μl FCA by intradermal injection at the base of the tail. After a further 14 days, arthritis was induced by intra-articular injection of 30 μg mBSA in 10 μl of sterile saline into the left knee, the right knee being injected with sterile saline alone.
Arthritis was analysed histologically at day 28 after first immunisation. Knee joints were dissected and fixed in 10% buffered formalin for 7 days. Fixed tissues were decalcified for 3 weeks in 15% ethylene-diamine-tetra-acetic acid (EDTA), dehydrated and embedded in paraffin. Sagittal sections (5 μm) of the knee joint were stained with Safranin-O and counterstained with fast green/iron hematoxylin. Histological sections were scored from 0 to 3 for four parameters: Synovitis was defined as hyper-cellularity of the synovium including pannus formation. Joint space exudate was identified as leukocytes, discretely or in aggregates, in the joint space. Cartilage degradation was defined as the loss of Safranin-O staining of articular cartilage (0=full stained cartilage, 3=totally unstained cartilage). Bone damage was defined as the extent and depth of the subchondral bone invasion by pannus. A total score was also generated from the sum of these four parameters (maximum 12).

For the compound `CCCCCOC(=O)c1ccc2[nH]c(=O)[nH]c2c1` [Compound 5], in experiment [1] (FIG. 5, LPS alone vs LPS with compound 5), the “serum IL-1 concentration” value is listed as “marked reduction”. Also, the “Serum IL-1 at 1.5 h, LPS + cpd” value was found to be 39.82 in experiment [1] (IP injection 15 mg/kg at −24, −6, −1 h, LPS alone 42.49); 283.8 in experiment [1] (IP injection 15 mg/kg at −24, −12, −1 h, LPS alone 484.8); 105.9 in experiment [1] (IP injection 15 mg/kg at −18 h, LPS alone 301.5); 182.5 in experiment [1] (Oral gavage 5 mg/kg at −24 h, −1 h, LPS alone 237.0); 47.1 in experiment [1] (Oral gavage 15 mg/kg at −24, −6, −1 h, LPS alone 103.7); 152.6 in experiment [1] (Oral gavage 15 mg/kg at −24 h, LPS alone 292.0). For the same compound, the “Serum IL-1 at 6 h, LPS + cpd” value in experiment [1] (IP injection 15 mg/kg at −24, −6, −1 h, LPS alone 786.6) turned out to be 170.2. For the same compound, the “Serum IL-6 at 1.5 h, LPS + cpd” value in experiment [1] (IP injection 15 mg/kg at −24, −12, −1 h, LPS alone 92790) is listed as 75260; in experiment [1] (Oral gavage 15 mg/kg at −24 h, LPS alone 121100), 80250. Also, the “Serum IL-6 at 6 h, LPS + cpd” value in experiment [1] (IP injection 15 mg/kg at −1 h, LPS alone 215100) was 150300. Further, in experiment [1] (IP injection 15 mg/kg at −18 h, LPS alone 4263), the “Serum TNF at 1.5 h, LPS + cpd” value came out at 2422. In addition, in experiment [1] (LPS 15 mg/kg IP, compound 15 mg/kg IP at 24, 12 and 1 hour before LPS, 1.5 hours after LPS, LPS only 261.05), the “Serum IL-6” value amounted to 99.78 ng/mL. For the same compound, the “Peritoneal lavage IL-6” value in experiment [1] (LPS 15 mg/kg IP, compound 15 mg/kg IP at 24, 12 and 1 hour before LPS, LPS only 16.11) was 7.07 ng/mL. The “Cultured peritoneal macrophage IL-6” value in experiment [1] (LPS 15 mg/kg IP, compound 15 mg/kg IP at 24, 12 and 1 hour before LPS, macrophages cultured 18 hours, LPS only 3.40) stood at 1.33 ng/mL. The “serum IL-1, IL-6, and TNF concentration” value in experiment [1] (LPS 15 mg/kg, IP or oral gavage, variety of administration regimens) is reported as “reductions”. Also, the “effect on antigen-specific T cell activation” value in experiment [2] (FIG. 8, mBSA 50 μg/mL, increasing concentrations) was “dose-dependent and statistically significant inhibitory effect”. For the same compound, the negative-log EC50 (pEC50) in experiment [2] (mBSA 10 μg/ml) is 4.82; in experiment [2] (mBSA 50 μg/ml), 4.86. Further, the total arthritis score entry in experiment [3] (FIG. 10a, p=0.0024) is reported as “statistically significant reduction”. Also, the “severity of all individual parameters of arthritis” value in experiment [3] (FIG. 10b) was “Statistically significant reductions”.
